The record followed here is US10329294B2, “Pyrazolopyrimidine inhibitors of IRAK4 activity” (MERCK SHARP & DOHME CORP., priority 2015, dated 2019).

For this assay, the target named is IRAK4 (Homo sapiens (Human), UniProt Q9NWZ3). As to the kind of experiment: IRAK4 Kinase Assay. Type of assay: biochemical. The conditions noted are these: IMAP fluorescence polarization, 0.5 nM GST tagged IRAK4, 100 μM ATP, 30 minutes at 25° C.; read-out: IRAK4 IC50.

The structures appear in SMILES notation. Structures can show the parent of a compound that is named as a salt.

Chain of IRAK4 (Q9NWZ3 whole entry): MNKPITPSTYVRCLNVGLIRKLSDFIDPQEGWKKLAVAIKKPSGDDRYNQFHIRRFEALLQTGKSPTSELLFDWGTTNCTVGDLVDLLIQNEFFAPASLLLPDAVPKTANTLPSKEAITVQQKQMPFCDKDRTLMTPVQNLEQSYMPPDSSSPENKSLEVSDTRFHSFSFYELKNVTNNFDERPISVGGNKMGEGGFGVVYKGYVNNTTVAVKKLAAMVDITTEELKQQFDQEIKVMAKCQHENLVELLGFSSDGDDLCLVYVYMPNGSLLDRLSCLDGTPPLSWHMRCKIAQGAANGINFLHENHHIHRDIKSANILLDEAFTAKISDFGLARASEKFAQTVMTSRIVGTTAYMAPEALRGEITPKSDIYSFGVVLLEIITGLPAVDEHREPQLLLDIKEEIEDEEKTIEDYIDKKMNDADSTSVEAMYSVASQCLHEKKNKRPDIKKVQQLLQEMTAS

Usually IC50 stands for the concentration that gives 50% inhibition. For the compound `N[C@H]1CCCC[C@H]1Nc1ccn2ncc(C(=O)Nc3c[nH]nc3C(F)(F)F)c2n1` [Example 301, 5-{[(1R,2S)-2-aminocyclohexyl]amino}-N-[3-(trifluoromethyl)-1H-pyrazol-4-yl]pyrazolo[1,5-a]pyrimidine-3-carboxamide trifluoroacetate], the IC50 was 0.8 nM.
